Laboratory results taken from PubChem BioAssay (NCI).
Several values for one entry are separate records, joined by “and”; a condition that tells them apart may be missing. Identical values can stand only once.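 Five compound concentrations were applied to cells in 96-well plates for 48 hours; endpoints were derived by simple linear interpolation of the resulting dose-response curve. Here, GI50 denotes the concentration required for 50% inhibition of growth. TGI is the concentration that stops growth completely.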

Columns and labels:
Assay in all cases: inhibition of tumour cell growth, NCI panel, 48 h
[1] = tested on: 786-0 renal
[2] = tested on: A498 renal
[3] = tested on: CAKI-1 renal
[4] = tested on: KM12 colon
[5] = tested on: M14 melanoma
[6] = tested on: MDA-MB-435
[7] = tested on: NCI-H522 lung
[8] = tested on: OVCAR-4 ovarian
[9] = tested on: PC-3 prostate
[10] = tested on: SK-MEL-28 melanoma
[11] = tested on: UO-31 renal

SMILES	TGI [1]	TGI [2]	TGI [3]	GI50 [4]	TGI [4]	GI50 [5]	TGI [5]	TGI [6]	GI50 [7]	TGI [7]	GI50 [8]	TGI [8]	TGI [9]	TGI [10]	GI50 [11]	TGI [11]	GI50 [2]	GI50 [6]	GI50 [9]	GI50 [10]
NCCNc1ccc(NCCN)c2c1C(=O)c1c(O)ccc(O)c1C2=O	0.0555 µM and 0.0497 µM	0.37 µM	0.879 µM and 0.123 µM	0.105 µM	1.24 µM and 0.731 µM	0.0324 µM	1.27 µM and 1.32 µM	2.37 µM	0.018 µM	0.467 µM and 0.15 µM	0.0625 µM	1.09 µM and 0.715 µM	1.64 µM	2.28 µM and 2.15 µM	0.0579 µM	0.823 µM and 0.374 µM				
CC(=O)c1ccc(Nc2nc3ccccc3c3occc23)cc1	21.7 µM	12.3 µM	16.1 µM		44.3 µM		36.5 µM	9.69 µM		9.12 µM		8.78 µM	> 100 µM	15.9 µM		96.4 µM				
CC(=O)C(C(=O)C(=O)Nc1cc(Cl)c(Cl)cc1Cl)c1csc(N)n1 (stereo unspecified)		> 100 µM	> 100 µM		> 100 µM		> 100 µM			> 100 µM		> 100 µM		> 100 µM		> 100 µM				
CCCc1cn2c(/C=N/N=C(N)N)c(-c3ccc([N+](=O)[O-])cc3)nc2s1	1.97 µM	10.6 µM	3.1 µM				3.18 µM	3.1 µM					7.01 µM	4.66 µM						
O=[N+]([O-])c1ccc(C2NC(=S)NC3c4cc([N+](=O)[O-])ccc4CCCC23)cc1 (stereo unspecified)	> 100 µM	> 100 µM	> 100 µM		> 100 µM		> 100 µM	> 100 µM		> 100 µM		> 100 µM	> 100 µM	> 100 µM		> 100 µM				
COC1=C(OC)C(=O)C(C/C=C/c2c(Cl)nc3sccn23)=C(C)C1=O	49.2 µM	48.2 µM	50.7 µM		44.4 µM		32.5 µM	23.6 µM		33.2 µM		13.9 µM	31.6 µM	33.7 µM		38.8 µM				
CCCCCC1CC(C(C)=O)CN1c1ccc(F)cc1 (stereo unspecified)		> 100 µM			> 100 µM		> 100 µM			56.5 µM				> 100 µM		> 100 µM				
CCn1c(=O)c2c3ccc(O)cc3[nH]c2c2ccc(O)cc21		> 100 µM	> 100 µM		> 100 µM		> 100 µM	> 100 µM		> 100 µM		> 100 µM	> 100 µM	> 100 µM		> 100 µM				
O=C(N/N=C/c1cc(Cl)cc(Cl)c1[O-])c1ccccc1O.O=C(N/N=C/c1cc(Cl)cc(Cl)c1[O-])c1ccccc1O.[Cu+2]			1.13 µM	0.442 µM	1.59 µM		0.964 µM			0.568 µM		0.637 µM		8.79 µM		1.41 µM				
Cn1cc(-c2csc(-c3cn(CCCN4CCCCC4)c4ccc(Br)cc34)n2)c2cccnc21		14 µM		1.89 µM	3.54 µM			3.16 µM			2.02 µM	4.19 µM	3.22 µM	3.2 µM	1.51 µM	2.89 µM	3.69 µM	1.74 µM	1.77 µM	1.71 µM
C[N+]1(C)C/C(=C\C=C\c2ccccc2)C(=O)/C(=C/C=C/c2ccccc2)C1	55.3 µM	> 94.9 µM	> 82.3 µM		10.3 µM		39.1 µM	20 µM		21.5 µM		> 84.2 µM	98.7 µM	17 µM		> 100 µM				
O=[N+]([O-])c1cc(C(F)(F)F)cc2c1SC1=Nc3ccccc3CN12		> 100 µM	> 100 µM		> 100 µM					> 100 µM		> 100 µM		> 100 µM		> 100 µM				
Nc1n[nH]c(N)n1	> 10000 µM	> 10000 µM	8860 µM		> 10000 µM		> 10000 µM	> 10000 µM		4640 µM		> 10000 µM	> 10000 µM	> 10000 µM		> 10000 µM				
O=C(N/N=C/c1cc(Cl)cc(Cl)c1[O-])c1ccccc1O.O=C(N/N=C/c1cc(Cl)cc(Cl)c1[O-])c1ccccc1O.[Fe+2]			69.2 µM	15.5 µM	41.8 µM		34.7 µM			23.8 µM		33.7 µM		40.6 µM		48.7 µM				
NC1C2C=CC(C2)C1C(=O)O (stereo unspecified)	> 100 µM	> 100 µM	> 100 µM		> 100 µM		> 100 µM	> 100 µM		> 100 µM		> 100 µM	> 100 µM	> 100 µM		> 100 µM				
CCC/C=C/C=C\C(=O)O[C@@H]1[C@@H](C)[C@]2(O)[C@@H]3C=C(C)C(=O)[C@H]3CC(COC(C)=O)=C[C@H]2[C@@H]2C(C)(C)[C@]12OC(C)=O		33.3 µM	72.2 µM		106 µM					> 89.6 µM		51.4 µM		86.7 µM		92.3 µM				
O=C(N/N=C/c1cc(Cl)cc(Cl)c1[OH2+])c1ccncc1.O=S(=O)([O-])[O-].[Fe+2]	53.9 µM				29.4 µM		41.1 µM			7.44 µM				> 100 µM		31.1 µM				
NCCCC(N)(C(=O)O)C(F)F (stereo unspecified)		> 5000 µM	> 5000 µM		> 5000 µM					> 5000 µM		> 5000 µM		> 5000 µM		> 5000 µM				
Oc1ccccc1CNCc1ccccc1O	> 100 µM	> 100 µM	> 100 µM		> 100 µM		> 100 µM	> 100 µM		> 100 µM		> 100 µM	> 100 µM	> 100 µM		> 100 µM				
COc1cc2c(cc1OC)-c1cc3cc(OC)c(OC)cc3c(C)[n+]1CC2 (tested in a mixture with another compound)	> 100 µM	> 100 µM	> 100 µM		> 100 µM		> 100 µM	> 100 µM		> 100 µM		> 100 µM	> 100 µM	> 100 µM		> 100 µM				
CCN(CC)CCCNC(=O)c1ccccc1Nc1c(Cl)cccc1Cl							7.86 µM					23 µM		9.51 µM		20.3 µM				
O=c1[nH]c(Br)nc2n[nH]nc12	> 100 µM	> 100 µM	> 100 µM		> 100 µM		> 100 µM	> 100 µM		> 100 µM		> 100 µM	> 100 µM			> 100 µM				
